Consider 32 compounds from patent US20040044000A1, “Isoquinoline derivatives as matrix metalloproteinase inhibitors” (priority 2002, published 2004).

For the first test, the target named is T1, MMP-13 catalytic domain (MMP-13CD) (Homo sapiens, UniProt P45452).
T1 construct: use the catalytic domain of the MMP-13 enzyme, namely matrix metalloproteinase-13 catalytic domain (“MMP-13CD”), rather than the corresponding full-length enzyme
Briefly: Inhibition of MMP-13 catalytic domain (thiopeptolide substrate hydrolysis). The format is biochemical. The following applies: Biological Table 1; read-out: MMP-13CD IC50. An excerpt:
The assays measure the amount by which a test compound reduces the hydrolysis of a thiopeptolide substrate catalyzed by a matrix metalloproteinase enzyme. Such assays are described in detail by Ye et al., in Biochemistry, 1992;31(45):11231-11235, which is incorporated herein by reference. One such assay is described below in Biological Method 1.
Some of the particular methods described below use the catalytic domain of the MMP-13 enzyme, namely matrix metalloproteinase-13 catalytic domain (“MMP-13CD”), rather than the corresponding full-length enzyme, MMP-13. It has been shown previously by Ye Qi-Zhuang, Hupe D., and Johnson L. (Current Medicinal Chemistry, 1996;3:407-418) that inhibitor activity against a catalytic domain of an MMP is predictive of the inhibitor activity against the respective full-length MMP enzyme.
Thiopeptolide substrates show virtually no decomposition or hydrolysis at or below neutral pH in the absence of a matrix metalloproteinase enzyme. A typical thiopeptolide substrate commonly utilized for assays is Ac-Pro-Leu-Gly-thioester-Leu-Leu-Gly-OEt. A 100 μL assay mixture will contain 50 mM of N-2-hydroxyethylpiperazine-N′-2-ethanesulfonic acid buffer (“HEPES,” pH 7.0), 10 mM CaCl2, 100 μM thiopeptolide substrate, and 1 mM 5,5′-dithio-bis-(2-nitro-benzoic acid) (DTNB). The thiopeptolide substrate concentration may be varied, for example from 10 to 800 μM to obtain Km and Kcat values. The change in absorbance at 405 nm is monitored on a Thermo Max microplate reader (molecular Devices, Menlo Park, Calif.) at room temperature (22° C.). The calculation of the amount of hydrolysis of the thiopeptolide substrate is based on E412=13600 M^−1 cm^−1 for the DTNB-derived product 3-carboxy-4-nitrothiophenoxide. Assays are carried out with and without matrix metalloproteinase inhibitor compounds, and the amount of hydrolysis is compared for a determination of inhibitory activity of the test compounds.
Test compounds were evaluated at various concentrations in order to determine their respective IC50 values, the micromolar concentration of compound required to cause a 50% inhibition of catalytic activity of the respective enzyme.
In general, IC50 refers to the point on the concentration scale where inhibition reaches its midpoint. As for `CSc1ccc(CNC(=O)c2ccc3ccn(CCOc4ccccc4)c(=O)c3c2)cc1` [Example 48, 1-oxo-2-(2-phenoxyethyl)-1,2-dihydroisoquinoline-7-carboxylic Acid 4-methylsulfanylbenzamide], the 50% inhibitory concentration (IC50) stood at 4.2 µM.

Turning to `O=C(O)c1ccc(Cn2ccc3ccc(C(=O)NCc4cncnc4)cc3c2=O)cc1` [Example 28, 4-[1-oxo-7-[(pyrimidin-5-ylmethyl)carbamoyl]-1H-isoquinolin-2-ylmethyl]benzoic Acid], the IC50 is 1.8 µM.

As for `Cc1ccc(CNC(=O)c2ccc3ccn(Cc4ccc(C#N)cc4)c(=O)c3c2)cc1` [Example 39, 2-(4-cyanobenzyl)-1-oxo-1,2-dihydro-isoquinoline-7-carboxylic Acid 4-methylbenzylamide], the IC50 was above 10 µM.

Take `N#Cc1ccc(Cn2ccc3ccc(C(=O)NCc4cccnc4)cc3c2=O)cc1` [Example 34, 2-(4-cyanobenzyl)-1-oxo-1,2-dihydro-isoquinoline-7-carboxylic acid (pyridin-3-ylmethyl)amide]: the IC50 was 3.4 µM.

In the case of `CS(=O)(=O)c1ccc(Cn2ccc3ccc(C(=O)NCc4ccncc4)cc3c2=O)cc1` [Example 49, 2-(4-methanesulfonylbenzyl)-1-oxo-1,2-dihydroisoquinoline-7-carboxylic Acid (pyridin-4-ylmethyl)amide], the half-maximal inhibitory concentration (IC50) was 3.1 µM.

As to `O=C(NCc1cccnc1)c1ccc2ccn(CCOc3ccccc3)c(=O)c2c1` [Example 42, 1-oxo-2-(2-phenoxyethyl)-1,2-dihydroisoquinoline-7-carboxylic Acid (pyridin-3-ylmethyl)amide], the IC50 came to 55 µM.

As to `Cc1ccc(CNC(=O)c2ccc3ccn(Cc4ccc(S(C)(=O)=O)cc4)c(=O)c3c2)cc1` [Example 55, 2-(4-methane-sulfonylbenzyl)-1-oxo-1,2-dihydro-isoquinoline-7-carboxylic Acid 4-methylbenzyl-amide], the IC50 was above 30 µM.

With `N#Cc1ccc(Cn2ccc3ccc(C(=O)NCc4cncnc4)cc3c2=O)cc1` [Example 38, 2-(4-cyanobenzyl)-1-oxo-1,2-dihydro-isoquinoline-7-carboxylic Acid (pyrimidin-5-ylmethyl)amide], the concentration for half-maximal inhibition (IC50) is 17 µM.

`O=C(NCc1ccco1)c1ccc2ccn(Cc3ccc(-c4nn[nH]n4)cc3)c(=O)c2c1` [Example 62, 1-oxo-2-[4-(2H-tetrazol-5-yl)benzyl]-1,2-dihydroisoquinoline-7-carboxylic Acid (furan-2-ylmethyl)amide]: the half-inhibitory concentration (IC50) came out at 12 µM.

The same test, now with this note: Biological Table 2, compounds of Example 66; read-out: MMP-13CD IC50.
As to `O=c1c2cc(C#CCc3ccccc3)ccc2ccn1CC1OCCO1` [Example 66n, 2-1,3-Dioxolan-2-ylmethyl-7-(3-phenyl-prop-1-ynyl)-2H-isoquinolin-1-one], the IC50 stood at 24 µM.

In the case of `N#CCCCn1ccc2ccc(C#CCc3ccccc3)cc2c1=O` [Example 66c, 4-[1-Oxo-7-(3-phenyl-prop-1-ynyl)-1H-isoquinolin-2-yl]-butyronitrile], the IC50 was determined as 22.5 µM.

As for `O=c1c2cc(C#CCc3ccccc3)ccc2ccn1CC1CCCO1` (centres unmarked) [Example 66i, 7-(3-Phenyl-prop-1-ynyl)-2-(tetrahydro-furan-2-ylmethyl)-2H-isoquinolin-1-one], the half-maximal inhibitory concentration (IC50) is 13 µM.

Take `O=c1c2cc(C#CCc3ccccc3)ccc2ccn1CCCCCCO` [Example 66ac, 2-(6-Hydroxy-hexyl)-7-(3-phenyl-prop-1-ynyl)-2H-isoquinolin-1-one]: the IC50 came to 7.1 µM.

For the compound `O=c1c2cc(C#CCc3ccccc3)ccc2ccn1Cc1ccccc1` [Example 66ag, 2-Benzyl-7-(3-phenyl-prop-1-ynyl)-2H-isoquinolin-1-one], the IC50 worked out at 1.9 µM.

In the case of `O=c1c2cc(C#CCc3ccccc3)ccc2ccn1CC(CO)(CO)CO` [Example 66b, 2-(3-Hydroxy-2,2-bis-hydroxymethyl-propyl)-7-(3-phenyl-prop-1-ynyl)-2H-isoquinolin-1-one], the half-inhibitory concentration (IC50) was above 100 µM.

On to `O=c1c2cc(C#CCc3ccccc3)ccc2ccn1CCC1OCCCO1` [Example 66f, 2-(2-1,3-Dioxinan-2-yl-ethyl)-7-(3-phenyl-prop-1-ynyl)-2H-isoquinolin-1-one], for which the concentration for half-maximal inhibition (IC50) was above 30 µM.

As to `CCOC(=O)CCn1ccc2ccc(C#CCc3ccccc3)cc2c1=O` [Example 66t, 3-[1-Oxo-7-(3-phenyl-prop-1-ynyl)-1H-isoquinolin-2-yl]-propionic acid ethyl ester], the IC50 is above 100 µM.

Regarding `CCC(=O)Cn1ccc2ccc(C#CCc3ccccc3)cc2c1=O` [Example 66ab, 2-(2-Oxo-butyl)-7-(3-phenyl-prop-1-ynyl)-2H-isoquinolin-1-one], the concentration for half-maximal inhibition (IC50) came to 12 µM.

Turning to `O=c1c2cc(C#CCc3ccccc3)ccc2ccn1CS(=O)(=O)c1ccccc1` [Example 66ad, 2-Benzenesulfonylmethyl-7-(3-phenyl-prop-1-ynyl)-2H-isoquinolin-1-one], the IC50 was determined as 20 µM.

In the case of `CCOC(=O)CCCCn1ccc2ccc(C#CCc3ccccc3)cc2c1=O` [Example 66s, 5-[1-Oxo-7-(3-phenyl-prop-1-ynyl)-1H-isoquinolin-2-yl]-pentanoic acid ethyl ester], the half-inhibitory concentration (IC50) stood at 8.7 µM.

As for `CCOC(=O)CCCn1ccc2ccc(C#CCc3ccccc3)cc2c1=O` [Example 66aa, 4-[1-Oxo-7-(3-phenyl-prop-1-ynyl)-1H-isoquinolin-2-yl]-butyric acid ethyl ester], the half-inhibitory concentration (IC50) turned out to be 12 µM.

On to `CC(C)(C)C(=O)Cn1ccc2ccc(C#CCc3ccccc3)cc2c1=O` [Example 66ae, 2-(3,3-Dimethyl-2-oxo-butyl)-7-(3-phenyl-prop-1-ynyl)-2H-isoquinolin-1-one], for which the IC50 came to 19 µM.

As to `COC(Cn1ccc2ccc(C#CCc3ccccc3)cc2c1=O)OC` [Example 66h, 2-(2,2-Dimethoxy-ethyl)-7-(3-phenyl-prop-1-ynyl)-2H-isoquinolin-1-one], the half-maximal inhibitory concentration (IC50) worked out at 34 µM.

For the compound `N#CCCCCCCn1ccc2ccc(C#CCc3ccccc3)cc2c1=O` [Example 66aj, 7-[1-Oxo-7-(3-phenyl-prop-1-ynyl)-1H-isoquinolin-2-yl]-heptanenitrile], the IC50 amounted to 3.9 µM.

For `COC(=O)Cn1ccc2ccc(C#CCc3ccccc3)cc2c1=O` [Example 66q, [1-Oxo-7-(3-phenyl-prop-1-ynyl)-1H-isoquinolin-2-yl]-acetic acid methyl ester], the IC50 worked out at 22 µM.

In the case of `COC(=O)CCCCn1ccc2ccc(C#CCc3ccccc3)cc2c1=O` [Example 66p, 5-[1-Oxo-7-(3-phenyl-prop-1-ynyl)-1H-isoquinolin-2-yl]-pentanoic acid methyl ester], the IC50 came to 9.4 µM.

As to `CS(=O)(=O)c1ccc(Cn2ccc3ccc(C#CCc4ccccc4)cc3c2=O)cc1` [Example 66o, 2-(4-Methanesulfonyl-benzyl)-7-(3-phenyl-prop-1-ynyl)-2H-isoquinolin-1-one], the IC50 amounted to 95 µM.

For the compound `N#CCCn1ccc2ccc(C#CCc3ccccc3)cc2c1=O` [Example 66d, 3-[1-Oxo-7-(3-phenyl-prop-1-ynyl)-1H-isoquinolin-2-yl]-propionitrile], the IC50 turned out to be 4.8 µM.

The same test, now with this note: hMMP-13CD, text b731; read-out: IC50 with hMMP-13CD.
For the compound `O=C(O)c1ccc(Cn2ccc3ccc(C#CCn4ccnn4)cc3c2=O)cc1` [4-[1-oxo-7-(3-[1,2,3]triazol-1-ylprop-1-ynyl)-1H-isoquinolin-2-ylmethyl]benzoic acid], the 50% inhibitory concentration (IC50) is above 50 µM.

The test is the same for the next values; noted with them: read-out: IC50 with MMP-13 catalytic domain.
In the case of `O=C(O)c1ccc(Cn2ccc3ccc(C#CCn4ccnc4)cc3c2=O)cc1` [Example 13, 4-[7-(3-Imidazol-1-ylprop-1-ynyl)-1-oxo-1H-isoquinolin-2-ylmethyl]benzoic Acid], the concentration for half-maximal inhibition (IC50) was 0.0089 µM.

Turning to `NS(=O)(=O)c1ccc(Cn2ccc3ccc(C#CCc4ccccc4)cc3c2=O)cc1` [Example 5, 4-[1-Oxo-7-(3-phenyl-prop-1-ynyl)-1H-isoquinolin-2-ylmethyl]benzenesulfonamide], the IC50 is 0.036 µM.

As for `O=C(O)c1ccc(Cn2ccc3ccc(C#CCc4ccccc4)cc3c2=O)cc1` [Example 1, 4-[1-Oxo-7-(3-phenyl-prop-1-ynyl)-1H-isoquinolin-2-ylmethyl]benzoic Acid], the IC50 was determined as 0.0018 µM.
